Measured values from patent publication US9434711B2 (Janssen Pharmaceutica, NV, priority 2007, dated 2016).

Target: canine TRPM8 (Canis lupus familiaris, UniProt Q1A7N1)
Assay: In Vitro Canine TRPM8 Functional Assay (Ca2+ fluorescence, icilin activation)
Type: cell-based
Settings: for inhibition at 0.2 µM / % Inh @ 0.2 (μM): compound at 0.2 μM, canine TRPM8, icilin activation; for inhibition at 0.2 µM: read-out: % Inh @ 0.2; for IC50: HEK293 cells stably expressing canine TRPM8, icilin activation, eight-point dose-response, read-out: IC50
How it was run: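 Cells (HEK293, stable canine TRPM8) are seeded 24 h before assay. They are then dye-loaded with Calcium 3 at 37 °C followed by room temperature. Compound is added and monitored for 5 min, after which icilin (~80% maximal response) is added.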

Sequence of canine TRPM8 (Q1A7N1 1-1104): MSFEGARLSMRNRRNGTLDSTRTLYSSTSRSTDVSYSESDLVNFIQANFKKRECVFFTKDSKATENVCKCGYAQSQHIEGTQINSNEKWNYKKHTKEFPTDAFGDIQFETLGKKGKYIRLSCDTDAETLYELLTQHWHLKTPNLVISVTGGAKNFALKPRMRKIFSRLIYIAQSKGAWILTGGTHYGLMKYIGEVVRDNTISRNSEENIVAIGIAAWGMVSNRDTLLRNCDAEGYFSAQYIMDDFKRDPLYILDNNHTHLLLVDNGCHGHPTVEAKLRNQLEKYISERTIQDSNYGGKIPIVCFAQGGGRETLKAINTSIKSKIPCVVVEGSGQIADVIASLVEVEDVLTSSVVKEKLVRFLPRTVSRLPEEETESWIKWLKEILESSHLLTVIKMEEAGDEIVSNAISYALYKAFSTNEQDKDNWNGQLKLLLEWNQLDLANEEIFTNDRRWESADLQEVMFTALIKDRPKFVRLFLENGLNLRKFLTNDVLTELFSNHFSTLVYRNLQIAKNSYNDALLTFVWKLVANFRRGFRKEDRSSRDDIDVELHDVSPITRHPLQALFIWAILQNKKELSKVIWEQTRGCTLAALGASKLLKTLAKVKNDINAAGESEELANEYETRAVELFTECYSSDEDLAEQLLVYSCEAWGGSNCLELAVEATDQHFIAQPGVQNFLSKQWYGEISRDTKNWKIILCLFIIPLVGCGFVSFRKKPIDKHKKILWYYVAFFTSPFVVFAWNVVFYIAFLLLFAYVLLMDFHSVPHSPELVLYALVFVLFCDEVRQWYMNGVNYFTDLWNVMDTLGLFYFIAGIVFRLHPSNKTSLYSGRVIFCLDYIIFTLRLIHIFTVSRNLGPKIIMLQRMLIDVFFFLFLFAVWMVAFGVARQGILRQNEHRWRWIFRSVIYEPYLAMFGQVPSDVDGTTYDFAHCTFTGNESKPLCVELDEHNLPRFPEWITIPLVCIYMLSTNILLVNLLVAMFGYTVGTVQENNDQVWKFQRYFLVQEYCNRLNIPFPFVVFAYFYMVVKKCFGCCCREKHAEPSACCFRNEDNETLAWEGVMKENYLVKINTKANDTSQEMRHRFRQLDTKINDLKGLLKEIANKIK

**Q.** With `Cc1c(N(Cc2ccccc2)S(=O)(=O)c2ccc(C(=O)O)cc2)sc2ccccc12` [Compound 486, N-(3-Methyl-benzo[b]thiophen-2-yl)-N-(benzyl)-4-carboxy-benzenesulfonamide] as the compound, how does the inhibition at 0.2 µM read?
**A.** 100%

**Q.** Which results are given for `Cc1c(N(Cc2cccc(C(F)(F)F)c2)S(=O)(=O)c2ccc(C(=O)O)cc2)sc2ccccc12` [Compound 491, N-(3-Methyl-benzo[b]thiophen-2-yl)-N-(3-trifluoromethyl-benzyl)-4-carboxy-benzenesulfonamide]?
**A.** IC50: 1 nM; inhibition at 0.2 µM: 101%

**Q.** With `Cc1c(N(Cc2ccc(S(C)(=O)=O)cc2)S(=O)(=O)c2ccc(C(=O)O)cc2)sc2ccccc12` [Compound 492, N-(3-Methyl-benzo[b]thiophen-2-yl)-N-(4-methylsulfone-benzyl)-4-carboxy-benzenesulfonamide] as the compound, how does the IC50 read?
**A.** 62 nM

**Q.** And the “% Inh @ 0.2 (μM)” value?
**A.** 91%

**Q.** Which IC50 does the source give for `Cc1c(N(Cc2c(F)c(F)c(F)c(F)c2F)S(=O)(=O)c2ccc(C(=O)O)cc2)sc2ccccc12` [Compound 493, N-(3-Methyl-benzo[b]thiophen-2-yl)-N-(2,3,4,5,6-pentafluoro-benzyl)-4-carboxy-benzenesulfonamide] here?
**A.** 0.8 nM

**Q.** What about the inhibition at 0.2 µM of the same compound?
**A.** 101%

**Q.** Which results are given for `Cc1c(N(Cc2ccc(S(=O)(=O)C(F)(F)F)cc2)S(=O)(=O)c2ccc(C(=O)O)cc2)sc2ccccc12` [Compound 494, N-(3-Methyl-benzo[b]thiophen-2-yl)-N-(4-trifluoromethylsulfone-benzyl)-4-carboxy-benzenesulfonamide]?
**A.** IC50: 0.9 nM; % Inh @ 0.2 (μM): 101%

**Q.** Which results are given for `Cc1c(N(Cc2cccnc2)S(=O)(=O)c2ccc(C(=O)O)cc2)sc2ccccc12` [Compound 495, N-(3-Methyl-benzo[b]thiophen-2-yl)-N-(pyridin-3-ylmethyl)-4-carboxy-benzenesulfonamide]?
**A.** IC50: 55 nM; % Inh @ 0.2 (μM): 98%

**Q.** `O=[N+]([O-])c1ccc(S(=O)(=O)N(CCC(F)(F)F)c2cc3ccccc3s2)cc1` [Compound 498, N-(Benzo[b]thiophen-2-yl)-4-nitro-N-(3,3,3-trifluoro-propyl)-benzenesulfonamide] was tested. Which inhibition at 0.2 µM did it give?
**A.** 41%

**Q.** Which results are given for `Nc1ccc(S(=O)(=O)N(CCC(F)(F)F)c2cc3ccccc3s2)cc1` [Compound 499, 4-Amino-N-(benzo[b]thiophen-2-yl)-N-(3,3,3-trifluoro-propyl)-benzenesulfonamide]?
**A.** IC50: 15 nM; inhibition at 0.2 µM: 101%

**Q.** Which inhibition at 0.2 µM does the source give for `CCCCN(c1sc2ccccc2c1NC(C)=O)S(=O)(=O)c1ccc(C(=O)OC)cc1` [Compound 500, N-(3-Acetylamino-benzo[b]thiophen-2-yl)-N-(butyl)-4-carbomethoxy-benzenesulfonamide] here?
**A.** 15%

**Q.** What does the source list for `O=C(O)c1ccc(S(=O)(=O)N(Cc2ccc(F)c(C(F)(F)F)c2)c2sc3ccccc3c2C2CCCC2)cc1` [Compound 502, N-(3-Cyclopentyl-benzo[b]thiophen-2-yl)-N-(4-fluoro-3-trifluoromethyl-benzyl)-4-carboxy-benzenesulfonamide]?
**A.** IC50: 10 nM; inhibition at 0.2 µM: 100%

**Q.** What does the source list for `CCCCN(c1sc2ccccc2c1C(C)=O)S(=O)(=O)c1ccc(Br)cc1` [Compound 503, N-(3-Acetyl-benzo[b]thiophen-2-yl)-N-(butyl)-4-bromo-benzenesulfonamide]?
**A.** IC50: 47 nM; inhibition at 0.2 µM: 96%

**Q.** Which IC50 does the source give for `COC(=O)c1ccc(S(=O)(=O)N(CCC(F)(F)F)c2sc3ccccc3c2C(C)(C)O)cc1` [Compound 504, N-(3-(1-Hydroxy-1-methyl-ethyl)-benzo[b]thiophen-2-yl)-N-(3,3,3-trifluoro-propyl)-4-carbomethoxy-benzenesulfonamide] here?
**A.** 18 nM

**Q.** What about the inhibition at 0.2 µM of the same compound?
**A.** 101%

**Q.** For `CCCCN(c1sc2ccccc2c1C(C)(C)O)S(=O)(=O)c1ccc(Br)cc1` [Compound 506, N-(Butyl)-N-(3-(1-hydroxy-1-methyl-ethyl)-benzo[b]thiophen-2-yl)-4-bromo-benzenesulfonamide], which IC50 is on record?
**A.** 31 nM

**Q.** And the inhibition at 0.2 µM?
**A.** 100%

**Q.** For `CS(=O)(=O)Nc1ccc(S(=O)(=O)N(CCC(F)(F)F)c2cc3ccccc3s2)cc1` [Compound 507, N-(Benzo[b]thiophen-2-yl)-4-methanesulfonylamino-N-(3,3,3-trifluoro-propyl)-benzenesulfonamide], which IC50 is on record?
**A.** 34 nM

**Q.** What about the inhibition at 0.2 µM of the same compound?
**A.** 92%

**Q.** For `CS(=O)(=O)Nc1c(N(Cc2ccc(F)c(C(F)(F)F)c2)S(=O)(=O)c2ccccc2)sc2ccccc12` [Compound 508, N-(4-Fluoro-3-trifluoromethyl-benzyl)-N-(3-methanesulfonylamino-benzo[b]thiophen-2-yl)-benzenesulfonamide], which inhibition at 0.2 µM is on record?
**A.** 47%

**Q.** For `CC(=O)Nc1c(N(Cc2ccc(F)c(C(F)(F)F)c2)S(=O)(=O)c2ccccc2)sc2ccccc12` [Compound 509, N-{2-[Benzenesulfonyl-(4-fluoro-3-trifluoromethyl-benzyl)-amino]-benzo[b]thiophen-3-yl}-acetamide], which IC50 is on record?
**A.** 32 nM

**Q.** And the inhibition at 0.2 µM?
**A.** 100%

**Q.** With `Cc1c(N(Cc2ccc(F)c(C(F)(F)F)c2)S(=O)(=O)CCC(=O)O)sc2ccccc12` [Compound 510, N-(4-Fluoro-3-trifluoromethyl-benzyl)-N-(3-methyl-benzo[b]thiophen-2-yl)-2-carboxy-ethanesulfonamide] as the compound, how does the IC50 read?
**A.** 11 nM

**Q.** What about the inhibition at 0.2 µM of the same compound?
**A.** 102%

**Q.** Which IC50 does the source give for `O=c1[nH]c(-c2ccc(S(=O)(=O)N(Cc3ccc(F)c(C(F)(F)F)c3)c3sc4ccccc4c3Br)cc2)no1` [Compound 511, N-(3-Bromo-benzo[b]thiophen-2-yl)-N-(4-fluoro-3-trifluoromethyl-benzyl)-4-(5-oxo-4,5-dihydro-[1,2,4]oxadiazol-3-yl)-benzenesulfonamide] here?
**A.** 3 nM

**Q.** And the inhibition at 0.2 µM?
**A.** 101%

**Q.** With `O=c1[nH]c(-c2ccc(S(=O)(=O)N(Cc3ccc(F)c(C(F)(F)F)c3)c3sc4ccccc4c3Cl)cc2)no1` [Compound 512, N-(3-Chloro-benzo[b]thiophen-2-yl)-N-(4-fluoro-3-trifluoromethyl-benzyl)-4-(5-oxo-4,5-dihydro-[1,2,4]oxadiazol-3-yl)-benzenesulfonamide] as the compound, how does the IC50 read?
**A.** 4 nM

**Q.** What about the inhibition at 0.2 µM of the same compound?
**A.** 102%

**Q.** For `O=c1[nH]c(-c2ccc(S(=O)(=O)N(CCCC(F)(F)F)c3cc4ccccc4s3)cc2)no1` [Compound 513, N-(Benzo[b]thiophen-2-yl)-N-(4,4,4-trifluoro-butyl)-4-(5-oxo-4,5-dihydro-[1,2,4]oxadiazol-3-yl)-benzenesulfonamide], which IC50 is on record?
**A.** 21 nM

**Q.** What about the inhibition at 0.2 µM of the same compound?
**A.** 101%

**Q.** Which results are given for `O=c1[nH]c(-c2ccc(S(=O)(=O)N(CCCC(F)(F)F)c3sc4ccccc4c3Br)cc2)no1` [Compound 514, N-(3-Bromo-benzo[b]thiophen-2-yl)-N-(4,4,4-trifluoro-butyl)-4-(5-oxo-4,5-dihydro-[1,2,4]oxadiazol-3-yl)-benzenesulfonamide]?
**A.** IC50: 46 nM; inhibition at 0.2 µM: 100%

**Q.** How did the IC50 turn out when `CCCCN(c1sc2ccccc2c1C(C)(C)O)S(=O)(=O)c1ccc(C(=O)OC)cc1` [Compound 516, N-(Butyl)-N-(3-(1-hydroxy-1-methyl-ethyl)-benzo[b]thiophen-2-yl)-4-carbomethoxy-benzenesulfonamide] was run?
**A.** 19 nM

**Q.** What about the inhibition at 0.2 µM of the same compound?
**A.** 102%

**Q.** What does the source list for `Cc1c(N(Cc2cc(F)c(F)c(F)c2)S(=O)(=O)c2ccc(C(=O)O)cc2)sc2ccccc12` [Compound 517, N-(3-Methyl-benzo[b]thiophen-2-yl)-N-(3,4,5-trifluoro-benzyl)-4-carboxy-benzenesulfonamide]?
**A.** IC50: 2 nM; inhibition at 0.2 µM: 102%

**Q.** With `Cc1c(N(Cc2ccc(C(F)(F)F)cc2)S(=O)(=O)c2ccc(C(=O)O)cc2)sc2ccccc12` [Compound 518, N-(3-Methyl-benzo[b]thiophen-2-yl)-N-(4-trifluoromethyl-benzyl)-4-carboxy-benzenesulfonamide] as the compound, how does the IC50 read?
**A.** 0.7 nM

**Q.** And the inhibition at 0.2 µM?
**A.** 101%

**Q.** What does the source list for `Cc1c(N(Cc2cc(C(F)(F)F)ccc2F)S(=O)(=O)c2ccc(C(=O)O)cc2)sc2ccccc12` [Compound 519, N-(3-Methyl-benzo[b]thiophen-2-yl)-N-(2-fluoro-5-trifluoromethyl-benzyl)-4-carboxy-benzenesulfonamide]?
**A.** IC50: 6 nM; inhibition at 0.2 µM: 102%

**Q.** Which inhibition at 0.2 µM does the source give for `Cc1c(N(Cc2cc(Cl)ccc2Cl)S(=O)(=O)c2ccc(C(=O)O)cc2)sc2ccccc12` [Compound 520, N-(3-Methyl-benzo[b]thiophen-2-yl)-N-(2,5-dichloro-benzyl)-4-carboxy-benzenesulfonamide] here?
**A.** 102%

**Q.** `Cc1c(N(Cc2ccc(Cl)c(F)c2)S(=O)(=O)c2ccc(C(=O)O)cc2)sc2ccccc12` [Compound 521, N-(3-Methyl-benzo[b]thiophen-2-yl)-N-(4-chloro-3-fluoro-benzyl)-4-carboxy-benzenesulfonamide] was tested. Which IC50 did it give?
**A.** 2 nM

**Q.** What about the inhibition at 0.2 µM of the same compound?
**A.** 101%

**Q.** For `Cc1c(N(Cc2ccc(F)cc2C(F)(F)F)S(=O)(=O)c2ccc(C(=O)O)cc2)sc2ccccc12` [Compound 522, N-(3-Methyl-benzo[b]thiophen-2-yl)-N-(4-fluoro-2-trifluoromethyl-benzyl)-4-carboxy-benzenesulfonamide], which IC50 is on record?
**A.** 4 nM

**Q.** And the inhibition at 0.2 µM?
**A.** 101%

**Q.** With `Cc1c(N(Cc2ccc3c(c2)OCO3)S(=O)(=O)c2ccc(C(=O)O)cc2)sc2ccccc12` [Compound 523, N-(3-Methyl-benzo[b]thiophen-2-yl)-N—(C-benzo[1,3]dioxol-5-yl-methy)-4-carboxy-benzenesulfonamide] as the compound, how does the IC50 read?
**A.** 2 nM

**Q.** And the “% Inh @ 0.2 (μM)” value?
**A.** 101%

**Q.** With `COc1ccc(CN(c2sc3ccccc3c2C)S(=O)(=O)c2ccc(C(=O)O)cc2)cc1OC` [Compound 525, N-(3-Methyl-benzo[b]thiophen-2-yl)-N-(3,4-dimethoxy-benzyl)-4-carboxy-benzenesulfonamide] as the compound, how does the inhibition at 0.2 µM read?
**A.** 101%

**Q.** How did the IC50 turn out when `Cc1c(N(Cc2ccc(SC(F)(F)F)cc2)S(=O)(=O)c2ccc(C(=O)O)cc2)sc2ccccc12` [Compound 526, N-(3-Methyl-benzo[b]thiophen-2-yl)-N-(4-trifluoromethylsulfanyl-benzyl)-4-carboxy-benzenesulfonamide] was run?
**A.** 1 nM

**Q.** And the inhibition at 0.2 µM?
**A.** 102%
